Results as given in US7589097B2, “Triazol[4,5-d] pyramidine derivatives and their use as purinergic receptor antagonists” (Vernalis Research Limited, priority 2001, dated 2009).

Target: human adenosine A2A receptors (Homo sapiens, UniProt P29274)
Assay: Binding affinities at hA2A receptors, displacement of [3H]-CGS 21680
Text: Adenosine Receptor Binding Binding Affinities at hA2A Receptors

Sequence of human adenosine A2A receptors (P29274 whole entry): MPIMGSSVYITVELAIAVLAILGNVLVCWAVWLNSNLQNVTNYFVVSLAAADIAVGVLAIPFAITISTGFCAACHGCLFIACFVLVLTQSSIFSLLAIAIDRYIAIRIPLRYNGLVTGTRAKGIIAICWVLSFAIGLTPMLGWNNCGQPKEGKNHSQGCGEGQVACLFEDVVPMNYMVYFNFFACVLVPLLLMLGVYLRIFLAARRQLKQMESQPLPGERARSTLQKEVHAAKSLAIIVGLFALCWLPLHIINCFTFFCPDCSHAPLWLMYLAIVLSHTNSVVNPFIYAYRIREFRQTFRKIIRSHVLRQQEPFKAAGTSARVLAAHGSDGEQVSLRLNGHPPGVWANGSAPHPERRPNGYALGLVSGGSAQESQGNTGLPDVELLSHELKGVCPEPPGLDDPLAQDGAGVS

Ki | SMILES
3 nM | Nc1nc(-c2ccco2)c2nnn(Cc3ccccc3F)c2n1 [Example 3, 3-(2-Fluorobenzyl)-7-(2-furyl)-3H-[1,2,3]triazolo[4,5-d]pyrimidine-5-amine]
4 nM | Nc1nc(-c2ccco2)c2nnn(Cc3cccc([N+](=O)[O-])c3)c2n1 [Example 4, 7-(2-furyl)-3-(3-nitrobenzyl)-3H-[1,2,3]triazolo[4,5-d]pyrimidine-5-amine]
3 nM | Nc1nc(-c2ccco2)c2nnn(Cc3ccc(Cl)s3)c2n1 [Example 8, 3-(5-chloro-2-thienyl)methyl-7-(2-furyl)-3H-[1,2,3]triazolo[4,5-d]pyrimidine-5-amine]

Test system: not given
Assay: not given

melting point | SMILES
149 to 149.3 °C | C=CCOCc1cccc(Cn2nnc3c(-c4ccc(C)o4)nc(N)nc32)n1 [Example 186, 3-(6-allyloxymethyl-2-pyridylmethyl)-7-(5-methyl-2-furyl)-3H-[1,2,3]triazolo[4,5-d]pyrimidine-5-amine]
191.7 to 191.9 °C | CC(C)c1cc(Cn2nnc3c(-c4ccco4)nc(N)nc32)ccc1[N+](=O)[O-] [Example 187, 7-(2-furyl)-3-(3-isopropyl-4-nitrobenzyl)-3H-[1,2,3]triazolo[4,5-d]pyrimidine-5-amine]
290.2 to 290.3 °C | Cc1cccc(C(=O)C(C)n2nnc3c(-c4ccco4)nc(N)nc32)n1 (centres unmarked) [Example 190, 2-(5-amino-7-(2-furyl)-3H-[1,2,3]triazolo[4,5-d]pyrimidin-3-yl)-1-(6-methyl-2-pyridyl)propanone]
186.1 to 189.1 °C | Nc1cccc(Cn2nnc3c(-c4ccc[nH]4)nc(N)nc32)c1 [Example 191, 3-(3-aminobenzyl)-7-(1H-pyrrol-2-yl)-3H-[1,2,3]triazolo[4,5-d]pyrimidine-5-amine]
253.6 to 254 °C | CC(=O)Nc1ccc(Cn2nnc3c(-c4ccco4)nc(N)nc32)cc1 [Example 193, N-(4-(5-amino-7-(2-furyl)-3H-[1,2,3]triazolo[4,5-d]pyrimidin-3-ylmethyl)phenyl)acetamide]
178.4 to 179 °C | Nc1nc(-c2ccco2)c2nnn(CCc3cccs3)c2n1 [Example 196, 7-(2-furyl)-3-(2-(2-thienylethyl))-3H-[1,2,3]triazolo[4,5-d]pyrimidine-5-amine]
188.3 to 188.5 °C | CC(C)c1cccc(Cn2nnc3c(-c4ccco4)nc(N)nc32)n1 [Example 197, 7-(2-furyl)-3-(6-isopropyl-2-pyridylmethyl)-3H-[1,2,3]triazolo[4,5-d]pyrimidine-5-amine]
226.5 to 227.9 °C | CC(C)c1cc(Cn2nnc3c(-c4ccco4)nc(N)nc32)nc(C(C)C)c1 [Example 199, 3-(4,6-diisopropyl-2-pyridylmethyl)-7-(2-furyl)-3H-[1,2,3]triazolo[4,5-d]pyrimidine-5-amine]
> 300 °C (dec.) | Nc1nc(-c2ccco2)c2nnn(Cc3ccc4[nH]ncc4c3)c2n1 [Example 200, 7-(2-furyl)-3-(5-indazolylmethyl)-3H-[1,2,3]triazolo[4,5-d]pyrimidine-5-amine]
143.6 to 144.5 °C | CC(C)(C)OC(=O)n1cc(Cn2nnc3c(-c4ccco4)nc(N)nc32)c2ccccc21 [Example 204, tert-butyl 3-(5-amino-7-(2-furyl)-3H-[1,2,3]triazolo[4,5-d]pyrimidine-3-ylmethyl)indole-1-carboxylate]
289.1 to 289.3 °C | Nc1nc(-c2ccco2)c2nnn(Cc3cc4ccccc4[nH]3)c2n1 [Example 207, 3-(2-indolylmethyl)-7-(2-furyl)-3H-[1,2,3]triazolo[4,5-d]pyrimidine-5-amine]
257.1 to 257.3 °C | Nc1nc(-c2ccco2)c2nnn(CC(=O)c3ccccc3)c2n1 [Example 211, 2-(5-Amino-7-(2-furyl)-3H-[1,2,3]triazolo[4,5-d]pyrimidin-3-yl)-1-phenylethanone]
178.3 to 178.5 °C | CCCc1cccc(Cn2nnc3c(-c4ccco4)nc(N)nc32)n1 [Example 216, 7-(2-furyl)-3-(6-n-propyl-2-pyridylmethyl)-3H-[1,2,3]triazolo[4,5-d]pyrimidine-5-amine]
146.7 to 149.3 °C | CC(C)COCc1cccc(Cn2nnc3c(-c4ccco4)nc(N)nc32)n1 [Example 217, 7-(2-furyl)-3-(6-isobutyloxymethyl-2-pyridylmethyl)-3H-[1,2,3]triazolo[4,5-d]pyrimidine-5-amine]
196 to 196.1 °C | Nc1nc(-c2ccco2)c2nnn(Cc3cccc(CBr)n3)c2n1 [Example 218, 3-(6-bromomethyl-2-pyridylmethyl)-7-(2-furyl)-3H-[1,2,3]triazolo[4,5-d]pyrimidine-5-amine]
223.3 to 223.4 °C | N#CCc1cccc(Cn2nnc3c(-c4ccco4)nc(N)nc32)n1 [Example 220, 3-(6-Cyanomethyl-2-pyridylmethyl)-7-(2-furyl)-3H-[1,2,3]triazolo[4,5-d]pyrimidine-5-amine]
164.3 to 169.3 °C | CC(C)c1ccc(Cn2nnc3c(-c4ccco4)nc(N)nc32)cn1 [Example 228, 7-(2-furyl)-3-(6-isopropyl-3-pyridylmethyl)-3H-[1,2,3]triazolo[4,5-d]pyrimidine-5-amine]
258.2 to 258.4 °C | COc1ccc(C(=O)Cn2nnc3c(-c4ccco4)nc(N)nc32)cc1 [Example 229, 2-(5-amino-7-(2-furyl)-3H-[1,2,3]triazolo[4,5-d]pyrimidin-3-yl)-1-(4-methoxyphenyl)ethanone]

melting point | SMILES
168.3 to 168.5 °C | CSCc1cccc(Cn2nnc3c(-c4ccco4)nc(N)nc32)n1 [Example 234, 7-(2-furyl)-3-(6-methylthiomethyl-2-pyridylmethyl)-3H-[1,2,3]triazolo[4,5-d]pyrimidine-5-amine]
231.6 to 231.7 °C | Nc1nc(-c2ccco2)c2nnn(CC(=O)c3ccccc3[N+](=O)[O-])c2n1 [Example 235, 2-(5-amino-7-(2-furyl)-3H-[1,2,3]triazolo[4,5-d]pyrimidin-3-yl)-1-(2-nitrophenyl)ethanone]
259.3 to 259.4 °C | CS(=O)(=O)N(Cc1cccc(Cn2nnc3c(-c4ccco4)nc(N)nc32)n1)Cc1cccc(Cn2nnc3c(-c4ccco4)nc(N)nc32)n1 [Example 237, N,N-bis(6-(5-amino-7-(2-furyl)-3H-[1,2,3]triazolo[4,5-d]pyrimidine-3-ylmethyl)-2-pyridylmethyl)methanesulphonamide]
238.2 to 238.6 °C | CS(=O)(=O)Cc1cccc(Cn2nnc3c(-c4ccco4)nc(N)nc32)n1 [Example 238, 7-(2-furyl)-3-(6-methylsulphonylmethyl-2-pyridylmethyl)-3H-[1,2,3]triazolo[4,5-d]pyrimidine-5-amine]
205.8 to 206 °C | CN(Cc1cccc(Cn2nnc3c(-c4ccco4)nc(N)nc32)n1)S(C)(=O)=O [Example 239, N-(6-(5-amino-7-(2-furyl)-3H-[1,2,3]triazolo[4,5-d]pyrimidin-3-ylmethyl)-2-pyridylmethyl)-N-methyl methanesulphonamide]
254.3 to 254.5 °C | Cc1nc(-c2nc(N)nc3c2nnn3Cc2cccc(N)c2)sc1C [Example 240, 3-(3-aminobenzyl)-7-(4,5-dimethyl-2-thiazolyl)-3H-[1,2,3]triazolo[4,5-d]pyrimidine-5-amine]
> 300 °C (dec.) | Cc1cc(Cn2nnc3c(-c4ccco4)nc(N)nc32)c2[nH]ccc2c1 [Example 243, 7-(2-furyl)-3-(5-methyl-7-indolylmethyl)-3H-[1,2,3]triazolo[4,5-d]pyrimidine-5-amine]
134.5 to 134.6 °C | CC(C)OCc1cccc(Cn2nnc3c(-c4ccco4)nc(N)nc32)n1 [Example 247, 7-(2-furyl)-3-(6-isopropoxymethyl-2-pyridylmethyl)-3H-[1,2,3]triazolo[4,5-d]pyrimidine-5-amine]
181.8 to 182.1 °C | CCOc1cccc(Cn2nnc3c(-c4ccco4)nc(N)nc32)n1 [Example 253, 3-(6-ethoxy-2-pyridylmethyl)-7-(2-furyl)-3H-[1,2,3]triazolo[4,5-d]pyrimidine-5-amine]
190.8 to 190.9 °C | CCOc1cccc(Cn2nnc3c(-c4ccc(C)o4)nc(N)nc32)n1 [Example 254, 3-(6-ethoxy-2-pyridylmethyl)-7-(5-methyl-2-furyl)-3H-[1,2,3]triazolo[4,5-d]pyrimidine-5-amine]
167.6 to 168.1 °C | CC(c1ccc(C(F)(F)F)cc1)n1nnc2c(-c3ccco3)nc(N)nc21 (centres unmarked) [Example 256, 7-(2-furyl)-3-(1-(4-frifluoromethylphenyl)ethyl)-3H-[1,2,3]triazolo[4,5-d]pyrimidine-5-amine]
228.4 to 228.5 °C | Cc1cc(Cn2nnc3c(-c4ccco4)nc(N)nc32)cc(C)c1[N+](=O)[O-] [Example 259, 3-(3,5-dimethyl-4-nitrobenzyl)-7-(2-furyl)-3H-[1,2,3]triazolo[4,5-d]pyrimidine-5-amine]
150.3 to 151 °C | CC(c1cccc(F)c1)n1nnc2c(-c3ccco3)nc(N)nc21 (centres unmarked) [Example 260, 3-(1-(3-fluorophenyl)ethyl)-7-(2-furyl)-3H-[1,2,3]triazolo[4,5-d]pyrimidine-5-amine]
250.1 to 261.3 °C | Cc1cc(Cn2nnc3c(-c4ccco4)nc(N)nc32)cc(C)c1N [Example 262, 3-(4-amino-3,5-dimethylbenzyl)-7-(2-furyl)-3H-[1,2,3]triazolo[4,5-d]pyrimidine-5-amine]
162 to 162.6 °C | COCCc1cccc(Cn2nnc3c(-c4ccco4)nc(N)nc32)n1 [Example 264, 7-(2-furyl)-3-(6-(2-methoxyethyl)-2-pyridylmethyl)-3H-[1,2,3]triazolo[4,5-d]pyrimidine-5-amine]
255.6 to 255.7 °C | Cc1ccc(-c2nc(N)nc3c2nnn3Cc2cccc([N+](=O)[O-])c2C)o1 [Example 267, 7-(5-methyl-2-furyl)-3-(2-methyl-3-nitrobenzyl)-3H-[1,2,3]triazolo[4,5-d]pyrimidine-5-amine]
248.1 to 249 °C | Cc1ccc(-c2nc(N)nc3c2nnn3Cc2ccc([N+](=O)[O-])cc2)o1 [Example 268, 7-(5-methyl-2-furyl)-3-(4-nitrobenzyl)-3H-[1,2,3]triazolo[4,5-d]pyrimidine-5-amine]
